Test: Human HepG2 cell viability assay in 384 well format
Assay type: toxicity, cell-based
Set-up: dose 125 nL, time 70.5 hour; concentration not given beside the values
Settings: HepG2 cells, read-out: Inhibition

| Structure (SMILES) | cytotoxicity at 70.5 h [%] |
| --- | --- |
| O=C1COc2cc(C(=O)NS(=O)(=O)c3ccc(F)cc3F)ccc2N1 | -13.6 |
| O=C(CC[C@@H]1CCCN2CCCC[C@H]12)N1CCC(c2nnc[nH]2)CC1 | -7.68 |
| Cc1cnn(CC2CCCN2C(=O)c2ccc3c(c2)nnn3C)c1 (stereo not drawn) | -6.19 |
| CN1C(=O)CC(C(=O)O)C12CCN(Cc1ccc(Cl)c(Cl)c1)CC2 (stereo not drawn) | -7.82 |
| Cn1cnc2cc(CCC(=O)Nc3nc[nH]n3)ccc21 | -0.94 |
| CCS(=O)(=O)N1CCc2c(CN3CCOCC3)cncc2C1 | -4.84 |
| Cn1cc(CN2CCO[C@@H]3CN(C4CCCC4)C[C@@H]3C2)cn1 | 1.26 |
| Cn1ccc(C(=O)N2CCC(Cc3ccc4ncccc4c3)CC2)n1 | 14.8 |
| Cc1csc(CCNCc2cnc3c(c2)c(C)nn3C)n1 | 5.91 |
| CSCc1nc(CNC(=O)C2CCCN(CC(N)=O)C2)cs1 (stereo not drawn) | 11.4 |
| O=C(Cc1ccsc1)N1CCC(n2nc(-c3ccco3)ccc2=O)CC1 | 1.25 |
| Cc1cc(Br)c(O)c(C(=O)N2CCC(CN3CCCCCC3)CC2)c1 | -5.82 |
| COC(=O)C1=C(C)N=C2SCC(=O)N2C1c1cn(C)nc1C (stereo not drawn) | -9.65 |
| O=C(c1cnccn1)N1CCc2c(COCC3CC3)cncc2C1 | -7.37 |
| NC(=O)c1ccc(C2CCCNC2)nc1 (stereo not drawn) | -4.69 |
| Cc1ccc(C)c(OCCN(C)C(=O)CCc2cn[nH]c2)c1 | -12.7 |
| COc1c(CNC2CCN(c3ncccn3)CC2)c(C(C)C)nn1C | 2.8 |
| O=S(=O)(Nc1c(F)cccc1N1CCCC1)c1cncc(F)c1 | -5.83 |
| CCOc1ccc(Br)cc1C1CCCCN1 (stereo not drawn) | -12.6 |
| Cc1nccc(NCc2cc3n(n2)CCCN(S(C)(=O)=O)C3)n1 | -3.08 |
| Cc1occc1CN(C)Cc1nc2c(cnn2C)c(=O)[nH]1 | -3.6 |
| CSCCN1CCC(NC(=O)c2cccc(C3CCCNC3)c2)CC1 (stereo not drawn) | -24.6 |
| COc1ccccc1CN(Cc1cccnc1)Cc1nccs1 | 9.35 |

| Structure (SMILES) | cytotoxicity at 70.5 h [%] |
| --- | --- |
| COc1ccc(NC(=O)NC(C)c2nc[nH]n2)cc1 (stereo not drawn) | -0.0192 |
| Cc1oncc1C(=O)N[C@@H]1CN(Cc2ccoc2)C[C@@H]2CCCO[C@@H]21 | 2.7 |
| N#CCCn1nc(C(F)(F)F)c2c1CCC2 | -2.44 |
| CC(C)N(C(=O)Cn1c(-c2ccco2)cc2cccnc21)C(C)C | -15.1 |
| CCc1cnc(N2CC[C@@H]3CN(C(=O)c4ccco4)CCO[C@@H]3C2)nc1 | -10.8 |
| CC(Cc1ccco1)NC(=O)Nc1ccc(N2CCCC2)nc1 (stereo not drawn) | -7.87 |
| Cc1nc(C)n(CC2CN(c3ncccc3C#N)CCO2)n1 (stereo not drawn) | -0.989 |
| COCC(=O)N1CCn2c(COc3cccnc3)cnc2C1C (stereo not drawn) | 6.09 |
| CCN(Cc1ccc(CN(C)C)cc1)C(=O)c1ccncc1O | -11.2 |
| CC(Oc1ccccc1C(F)(F)F)C(=O)NCCCC(N)=O (stereo not drawn) | 11.1 |
| c1c2c(nn1CC1CC1)C(CNC1CCOCC1)OCC2 (stereo not drawn) | -11.6 |
| CC(C)OCc1noc(C2CC=CC2)n1 | -6.7 |
| Cc1cc(C[C@@H]2COC[C@H]2NCc2ccc(Cl)c(Cl)c2)on1 | 19.8 |
| O=C(c1cccc(F)c1)N1CCCC1c1ncc2c(n1)CCNC2 (stereo not drawn) | -4.38 |
| Cn1cc(CN2CCC3(CCCN(C(=O)c4cscn4)C3)C2)cn1 (stereo not drawn) | -3.85 |
| Cc1cccc(C2CCCN(C(=O)CN3CCOC3=O)C2)c1 (stereo not drawn) | -17.6 |
| Cc1ccccc1S(=O)(=O)N[C@@H]1CC[C@@H](N2CCNC(=O)C2)[C@@H]1O | -4.42 |
| Cc1nc(CNC(=O)N2CCN(c3ccc(Cl)cn3)CC2)sc1C | -3.28 |
| CCOc1cccc(C(=O)N2CCCn3nc(CCC(=O)O)cc3C2)c1 | -5.68 |
| Cc1nc(-c2ccc(CC(=O)N3CCNC(=O)C3)cc2)cs1 | 9.75 |
| Cc1csc(N2CCN(C(=O)C3(C#N)CCCC3)CC2)n1 | -5.35 |
| CCC(NC(=O)c1cnc(-c2cccnc2)nc1)c1ccnn1C (stereo not drawn) | 32.1 |
| CC(C)CC(C#N)NC(=O)COC1CCCCC1 (stereo not drawn) | -8.86 |

| Structure (SMILES) | cytotoxicity at 70.5 h [%] |
| --- | --- |
| COCc1noc(Cn2c(C)cc(C(F)(F)F)cc2=O)n1 | -10.7 |
| Cc1cccc(OCCCN2CCC(N(C)Cc3noc(C)n3)C2)c1 (stereo not drawn) | 25.5 |
| CCN(CCN(C)C)c1nc(CCN)nc2sc(C)c(C)c12 | 8.66 |
| CC1CCCN(CCNC(=O)c2ccn(-c3ccccc3)n2)C1 (stereo not drawn) | -5.27 |
| O=C(c1ccccn1)C1CCCN(c2nccc(CCC(F)(F)F)n2)C1 (stereo not drawn) | -13.1 |
| Cc1ccc(C2CCCCCN2CCNS(C)(=O)=O)o1 (stereo not drawn) | -5.05 |
| CCN(Cc1nonc1C)C(=O)c1cnccn1 | -8.37 |
| CC(C)(C)c1nc(CN2CCC(c3ccnn3CCO)CC2)no1 | -0.084 |
| Cc1ccc(-n2nc3n(c2=O)CCN(C(=O)c2ccc(Cl)cc2)C3)cc1 | -10.2 |
| Cc1cc(C)nc(N2CC[C@H](Oc3ccccc3F)[C@@H](O)CC2)n1 | -3.75 |
| CN(C)C(=O)COCc1cncc2c1CCN(Cc1ccccc1)C2 | -3.3 |
| O=C(NCC(O)CN1CCc2ccccc2C1)Nc1cccnc1 (stereo not drawn) | -17.4 |
| CN(C)C(=O)N1Cc2ncn(C)c2C(COCC2CCOCC2)C1 (stereo not drawn) | -11.9 |
| Cc1noc([C@@H]2CCCN2C(=O)C2CCN(C(=O)C3CCC3)CC2)n1 | 10.6 |
| CC(C(=O)Nc1ccc(N2CCCCC2)nc1)n1cncn1 (stereo not drawn) | 26.7 |
| O=C(CCc1nc(Cl)n[nH]1)N1CCC2(CCCN(CC3CCC3)C2=O)C1 (stereo not drawn) | -7.56 |
| Cc1ccc(C(=O)N2CCOC(c3ncc(CN(C)C)[nH]3)C2)cc1F (stereo not drawn) | -3.52 |
| O=C(NC1CC1)[C@H]1C[C@@H]2CCN(CCc3ccccc3)C[C@H]2O1 | -11.8 |
| Cc1nc(NC(=O)N[C@H](CO)c2ccccc2)sc1C | -15.6 |
| Cc1csc(N2CCN(CC(=O)Nc3c(C)n[nH]c3C)CC2C)n1 (stereo not drawn) | 7.7 |
| CC(CNC(=O)c1ccc(Cl)cc1F)N1CCN(C)CC1 (stereo not drawn) | 13.3 |
| O=C(OCc1ccccc1)c1cccc(NC(=O)C2COCCO2)c1 (stereo not drawn) | 1.04 |
| COc1ccc(C(C)N2CCC(OC)CC2)cc1Cl (stereo not drawn) | -5.66 |

| Structure (SMILES) | cytotoxicity at 70.5 h [%] |
| --- | --- |
| Cc1cc(C(=O)O)cc(S(=O)(=O)Nc2ccc3c(c2)OCCO3)c1C | -3.8 |
| COCCNC(=O)NC(c1ccccc1)c1ccccc1OC (stereo not drawn) | -3.63 |
| N#CC1(C(=O)N2C[C@H](Nc3ccnc(N)n3)[C@@H](C3CC3)C2)CCOCC1 | -3.81 |
| CN(C)C1CN(C(=O)Nc2cccc(OC(F)F)c2)C1 | 17.6 |
| COc1ncccc1NC(=O)C1CCN(S(C)(=O)=O)CC1 | -9.19 |
| CCCn1ccnc1CN1C[C@@H](CN2CCCCC2)[C@@H](CO)C1 | -2.74 |
| Cn1cc(C(=O)CC2CCCN2C(=O)c2coc3ccccc23)cn1 (stereo not drawn) | -12.8 |
| CN(C)C(=O)CN1C(=O)CCC12CCN(Cc1cccs1)CC2 | 9.34 |
| CCN1CCN(c2ccc(CNC(=O)c3cc(C)on3)cn2)CC1 | -4.09 |
| Cc1ccc(C(=O)N2CCC3(CCN3Cc3ccc(F)cc3)C2)cn1 (stereo not drawn) | -8.15 |
| C[C@@H]1CN(Cc2ccccc2F)CC(C(N)=O)O1 (stereo partly drawn) | -14.1 |
| Cc1cc(NC(C)c2nnn[nH]2)n2nc(C)c(C)c2n1 (stereo not drawn) | 5.16 |
| O=C(NC1(c2cccc(F)c2)CCOCC1)c1ccoc1 | -6.8 |
| CCNC(=O)NC(=O)CNC(C)(C)c1ccc2c(c1)OCO2 | -4.4 |
| Cc1ccc(CNC(=O)NCc2nccn2C)c(OC(C)(C)C)c1 | -2.56 |
| Cc1nnc2n1CCN(C(=O)c1ccc(Cn3cccc3)cc1)C2 | -7.82 |
| O=C(C[S+]([O-])Cc1ccccc1F)N1CCc2sccc2C1 (stereo not drawn) | -7.21 |
| O=C(c1ccc2c(c1)OCO2)N1CCN2C(=O)NC[C@H]2C1 | -7.42 |
| CCc1nc(-c2ccc(NC(=O)N3CCOCC3)cc2)no1 | -3.86 |
| COCCN1CCCC(CCCc2ccccn2)(C(N)=O)C1 (stereo not drawn) | -6.05 |
| O=C(O)C1(Cc2ccc(F)cc2)CCCN(Cc2ccncc2)C1 (stereo not drawn) | 4.55 |
| CCCN(C(=O)c1cnns1)C1CCCN(Cc2ccccc2)C1 (stereo not drawn) | -7.29 |
| COc1c(CNCC(O)c2ccccc2)c(C(C)C)nn1C (stereo not drawn) | -9.73 |

| Structure (SMILES) | cytotoxicity at 70.5 h [%] |
| --- | --- |
| Cc1nc(C(=O)N(C)[C@@H]2CCC[C@@H](Oc3ccccc3)[C@@H]2O)co1 | 6.12 |
| CC(=O)N1CCC2(CCN(Cc3ccc(Cl)c(C(F)(F)F)c3)CC2)C1 | -11.6 |
| CN(C)c1ncccc1C(=O)N1CCN(C2=NCC(C)(C)S2)CC1 | 6.73 |
| CN(C)CC(=O)N1CCN(C(=O)c2cccc3[nH]ncc23)CC1 | -8.09 |
| O=C(O)c1ccccc1C1CCN(C2Cc3ccccc3C2)C1 (stereo not drawn) | -1.24 |
| COCCN(Cc1cccs1)C(=O)C1CCCN(C(N)=O)C1 (stereo not drawn) | 14.1 |
| CCNc1ncc(-c2cc(-c3ccn(C)c3)nc(N)c2C#N)cn1 | -11.6 |
| O=C(NC1CCN(c2cccc(C(F)(F)F)n2)CC1)C1CC1 | 23.1 |
| COCc1nc(C(=O)N2CCCC2c2noc(C(C)C)n2)cs1 (stereo not drawn) | -0.699 |
| NC(=O)CN1CCC(C(=O)NCc2nc(-c3ccc(F)cc3)cs2)CC1 | -0.391 |
| O=C1CC(c2ccccc2)C2(CCN(C(=O)c3cnccn3)CC2)N1 (stereo not drawn) | -8.06 |
| Cc1cc2nc(CO[C@H]3CN(C4CCC4)C[C@H]3F)[nH]c2cc1C | -2.01 |
| COc1cccc2c1OCC(C(=O)NCCCn1nc(C)c(Cl)c1C)C2 (stereo not drawn) | -7.76 |
| CCCc1nccn1-c1cccc(C(C)O)c1 (stereo not drawn) | -2.3 |
| Cn1nc(C(=O)N2CCCC(n3cncn3)C2)ccc1=O (stereo not drawn) | -7.35 |
| CN(CCCc1nccn1C)C(=O)C1CCN(C(=O)C2CCC2)CC1 | 3.53 |
| CC(C)c1ncc(CN2C[C@@H](CN3CCCN(C)CC3)[C@@H](CO)C2)cn1 | -3.2 |
| Cc1ccc(CN2CCCC(c3nnc(CN4CCCCC4)n3C)C2)s1 (stereo not drawn) | 4.84 |
| Cc1cccc2sc(NC(=O)CN3CCCC(O)(CO)C3)nc12 (stereo not drawn) | 11 |
| CCCS(=O)(=O)NC(C)C(=O)NCc1ccc(N2CCN(C)CC2)nc1 (stereo not drawn) | -2.17 |
| COC(=O)CCC(=O)N1CCC2(CN(Cc3ccccc3F)C2)C1 | -7.6 |

Source: ChEMBL document CHEMBL3507680, “University of Dundee, Gates Library screen for HepG2 cell viability”
